These results are taken from US20250084074A1, “SUBSTITUTED HETEROCYCLES AS HSET INHIBITORS” (MERCK PATENT GMBH, priority 2022, published 2025).

The structures appear in SMILES notation. Counter-ions that a name gives are not always drawn.

In general, IC50 refers to the concentration that gives 50% inhibition.

For this assay, the target named is HSET full length protein (Homo sapiens (Human), UniProt Q9BW19). Kind of assay: HSET ADP-Glo Assay S - 3 μM ATP. Particulars: 5 nM HSET, 70 μg/mL microtubule, 80 min at rt, read-out: COMBINED HSET ADP GLO IC50. The assay is classed as biochemical. The procedure, abridged: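 ADP-Glo luminescence read-out: ATPase reaction at 3 μM ATP, 80 min at room temperature, after a 10 min compound preincubation. Enzyme was full-length human HSET at 5 nM, stimulated by 70 μg/mL paclitaxel-stabilised bovine microtubules in HEPES pH 6.8 buffer with MgCl2, EGTA, Triton X-100 and DTT.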
HSET full length protein, sequence (Q9BW19 whole entry): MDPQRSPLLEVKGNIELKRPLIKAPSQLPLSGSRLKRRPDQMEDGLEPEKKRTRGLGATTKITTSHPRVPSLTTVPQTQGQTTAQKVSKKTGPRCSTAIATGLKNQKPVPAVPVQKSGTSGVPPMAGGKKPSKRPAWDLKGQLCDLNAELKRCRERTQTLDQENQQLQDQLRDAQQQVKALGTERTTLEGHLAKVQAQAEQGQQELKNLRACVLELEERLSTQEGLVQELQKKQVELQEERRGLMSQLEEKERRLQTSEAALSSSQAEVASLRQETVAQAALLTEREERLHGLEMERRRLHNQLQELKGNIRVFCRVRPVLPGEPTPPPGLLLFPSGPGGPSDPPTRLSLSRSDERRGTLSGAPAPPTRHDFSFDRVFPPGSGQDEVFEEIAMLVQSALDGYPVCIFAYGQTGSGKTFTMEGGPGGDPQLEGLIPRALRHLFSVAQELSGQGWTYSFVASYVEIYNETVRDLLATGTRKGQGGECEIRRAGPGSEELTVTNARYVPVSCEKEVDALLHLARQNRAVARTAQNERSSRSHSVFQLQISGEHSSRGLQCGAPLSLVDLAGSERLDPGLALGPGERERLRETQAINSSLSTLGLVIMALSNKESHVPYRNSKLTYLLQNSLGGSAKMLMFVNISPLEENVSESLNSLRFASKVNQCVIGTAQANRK
On the technique in general: In ADP-Glo the light output rises with the ADP produced.
Take `Cc1nc(NC(=O)C[C@H](CC#N)NC(=O)c2cccc(C#N)c2)sc1C(=O)OC(C)C` [Example 207, Propan-2-yl 2-[(3S)-4-cyano-3-[(3-cyanophenyl)formamido]butan-amido]-4-methyl-1,3-thiazole-5-carboxylate]: the IC50 was determined as 590 nM.
Under `Cc1nc(NC(=O)C[C@H](CC#N)Nc2nccc3ccc(C#N)cc23)sc1C(=O)OC(C)C` [Example 208, Propan-2-yl 2-[(3S)-4-cyano-3-[(7-cyanoisoquinolin-1-yl)amino]butan-amido]-4-methyl-1,3-thiazole-5-carboxylate] stands 79 nM.
`Cc1nc(NC(=O)C[C@@H](CC#N)Nc2nccc3ccc(C#N)cc23)sc1C(=O)OC(C)C` [Example 209, Propan-2-yl 2-[(3R)-4-cyano-3-[(7-cyanoisoquinolin-1-yl)amino]butan-amido]-4-methyl-1,3-thiazole-5-carboxylate]: the IC50 amounted to 4000 nM.
The figure for `Cc1nc(NC(=O)C[C@H](CC#N)Nc2nccc3ccc(-c4cnn(C)c4)cc23)sc1C(=O)OC(C)C` [Example 210, Propan-2-yl 2-[(3S)-4-cyano-3-{[7-(1-methyl-1 H-pyrazol-4-yl)isoquinolin-1-yl]amino}butanamido]-4-methyl-1,3-thiazole-5-carboxylate] is 700 nM; for `Cc1nc(NC(=O)C[C@H](CC#N)NC(=O)c2cccc(-c3cnn(C)c3)n2)sc1C(=O)OC(C)(C)C` [Example 211, tert-Butyl 2-[(3S)-4-cyano-3-{[6-(1-methyl-1 H-pyrazol-4-yl)pyridin-2-yl]formamido}butanamido]-4-methyl-1,3-thiazole-5-carboxylate] it is 1300 nM.
`Cc1nc(NC(=O)C[C@@H](CC#N)NC(=O)c2cccc(-c3cnn(C)c3)n2)sc1C(=O)OC(C)(C)C` [Example 212, tert-Butyl 2-[(3R)-4-cyano-3-{[6-(1-methyl-1 H-pyrazol-4-yl)pyridin-2-yl]formamido}butanamido]-4-methyl-1,3-thiazole-5-carboxylate]: the IC50 amounted to 3350 nM.
For `Cc1nc(NC(=O)C[C@H](CC#N)NC(=O)c2cccc(-c3cnn(C)c3)n2)sc1C(=O)OC(C)C` [Example 213, Propan-2-yl 2-[(3S)-4-cyano-3-{[6-(1-methyl-1 H-pyrazol-4-yl)pyridin-2-yl]formamido}butanamido]-4-methyl-1,3-thiazole-5-carboxylate], the IC50 came out at 1700 nM.
The figure for `Cc1nc(NC(=O)C[C@@H](CC#N)NC(=O)c2cccc(-c3cnn(C)c3)n2)sc1C(=O)OC(C)C` [Example 214] is 2400 nM; for `CCOC(=O)c1sc(NC(=O)CC(CC)NC(=O)c2cccc(-c3noc(C)n3)c2)nc1C` (centres unmarked) [Example 215] it is 84 nM; for `COC(=O)c1sc(NC(=O)C[C@H](CC(=O)O)NC(=O)c2cccc(-c3noc(C)n3)c2)nc1C` [Example 216, (3R)-4-{[5-(methoxycarbonyl)-4-methyl-1,3-thiazol-2-yl]carbamoyl}-3-{[3-(5-methyl-1,2,4-oxadiazol-3-yl)phenyl]formamido}butanoic acid] it is 1700 nM.
Under `COC(=O)c1sc(N(C)C(=O)C[C@@H](CC(=O)O)NC(=O)c2cccc(-c3noc(C)n3)c2)nc1C` [Example 217] stands 7300 nM; under `CCN(c1nc(C)c(C(=O)OC(C)(C)C)s1)C(=O)[C@H]1C[C@@H](Nc2nccc3ccc(-c4noc(C)n4)cc23)C1` [Example 218, tert-Butyl 2-((1s,3s)-N-ethyl-3-((7-(5-methyl-1,2,4-oxadiazol-3-yl)isoquinolin-1-yl)amino)cyclobutanecarboxamido)-4-methylthiazole-5-carboxylate formate], 41 nM; under `CCOC(=O)c1sc(N(C)C(=O)CCNC(=O)c2cccc(-c3noc(C)n3)c2)nc1C` [Example 219, Ethyl 4-methyl-2-(N-methyl-3-(3-(5-methyl-1,2,4-oxadiazol-3-yl)benzamido)propanamido)thiazole-5-carboxylate], 89 nM.
With `CCCOC(=O)c1sc(C(=O)N[C@H]2C[C@@H](Nc3nccc4ccc(-c5noc(C)n5)cc34)C2)nc1C` [Example 220, Propyl 4-methyl-2-(((1s,3s)-3-((7-(5-methyl-1,2,4-oxadiazol-3-yl)isoquinolin-1-yl)amino)cyclobutyl)carbamoyl)thiazole-5-carboxylate], the IC50 stood at 122 nM.
Regarding `Cc1nc(-c2ccc3ccnc(N[C@H]4C[C@@](O)(C(=O)Nc5nc(C)c(C(C)(C)C)s5)C4)c3c2)no1` [Example 221, (1 r,3r)-N-(5-(tert-butyl)-4-methylthiazol-2-yl)-1-hydroxy-3-((7-(5-methyl-1,2,4-oxadiazol-3-yl)isoquinolin-1-yl)amino)cyclobutane-1-carboxamide], the IC50 was 133 nM.
The figure for `Cc1nc(-c2ccc3ccnc(N[C@H]4C[C@@](F)(C(=O)Nc5nc(C)c(C(=O)OC(C)(C)C)s5)C4)c3c2)no1` [Example 222, tert-butyl 2-((1 r,3r)-1-fluoro-3-((7-(5-methyl-1,2,4-oxadiazol-3-yl)isoquinolin-1-yl)amino)cyclobutane-1-carboxamido)-4-methylthiazole-5-carboxylate] is 10 nM.
The figure for `Cc1nc(-c2ccc3ccnc(N[C@H]4C[C@](F)(C(=O)Nc5nc(C)c(C(=O)OC(C)(C)C)s5)C4)c3c2)no1` [Example 223, tert-Butyl 2-((1s,3s)-1-fluoro-3-((7-(5-methyl-1,2,4-oxadiazol-3-yl)isoquinolin-1-yl)amino)cyclobutane-1-carboxamido)-4-methylthiazole-5-carboxylate] is 219 nM; for `Cc1nc(-c2ccc3ccnc(N[C@H]4C[C@@](C)(C(=O)Nc5nc(C)c(C(=O)OC(C)(C)C)s5)C4)c3c2)no1` [Example 224, tert-Butyl 4-methyl-2-((1s,3s)-1-methyl-3-((7-(5-methyl-1,2,4-oxadiazol-3-yl)isoquinolin-1-yl)amino)cyclobutane-1-carboxamido)thiazole-5-carboxylate] it is 270 nM.
The figure for `Cc1nc(-c2ccc3ccnc(N[C@@H]4CCN(C(=O)Nc5nc(C)c(C(=O)OC(C)(C)C)s5)C4)c3c2)no1` [Example 225, tert-Butyl 4-methyl-2-[[(3R)-3-[[7-(5-methyl-1,2,4-oxadiazol-3-yl)-1-isoquinolyl]amino]pyrrolidine-1-carbonyl]amino]thiazole-5-carboxylate] is 1660 nM; for `Cc1nc(-c2ccc3ccnc(N[C@H]4CCN(C(=O)Nc5nc(C)c(C(=O)OC(C)(C)C)s5)C4)c3c2)no1` [Example 226, tert-Butyl 4-methyl-2-[[(3S)-3-[[7-(5-methyl-1,2,4-oxadiazol-3-yl)-1-isoquinolyl]amino]pyrrolidine-1-carbonyl]amino]thiazole-5-carboxylate] it is 12 nM; for `Cc1nc(-c2ccc3ccnc(N[C@H]4CCN(C(=O)N(C)c5nc(C)c(C(=O)OC(C)(C)C)s5)C4)c3c2)no1` [Example 227, tert-Butyl 4-methyl-2-[methyl-[(3S)-3-[[7-(5-methyl-1,2,4-oxadiazol-3-yl)-1-isoquinolyl]amino]pyrrolidine-1-carbonyl]amino]thiazole-5-carboxylate] it is 88 nM.
For the compound `Cc1nc(-c2cccc(C(=O)NC3CN(C(=O)Nc4nc(C)c(C(=O)OC(C)(C)C)s4)C3)c2)no1` [Example 228, tert-Butyl 4-methyl-2-[[3-[[3-(5-methyl-1,2,4-oxadiazol-3-yl)benzoyl]amino]azetidine-1-carbonyl]amino]thiazole-5-carboxylate], the IC50 turned out to be 86 nM.
In the case of `Cc1nc(-c2cccc(C(=O)NC3CN(C(=O)N(C)c4nc(C)c(C(=O)OC(C)(C)C)s4)C3)c2)no1` [Example 229, tert-Butyl 4-methyl-2-[methyl-[3-[[3-(5-methyl-1,2,4-oxadiazol-3-yl)benzoyl]amino]azetidine-1-carbonyl]amino]thiazole-5-carboxylate], the IC50 was found to be 52 nM.
Regarding `Cc1nc(-c2ccc3ccnc(NC4CN(C(=O)Nc5nc(C)c(C(=O)OC(C)(C)C)s5)C4)c3c2)no1` [Example 230, tert-Butyl 4-methyl-2-[[3-[[7-(5-methyl-1,2,4-oxadiazol-3-yl)-1-isoquinolyl]amino]azetidine-1-carbonyl]amino]thiazole-5-carboxylate], the IC50 came to 2 nM.
The figure for `Cc1nc(-c2ccc3ccnc(NC4CN(C(=O)N(C)c5nc(C)c(C(=O)OC(C)(C)C)s5)C4)c3c2)no1` [Example 231, tert-Butyl 4-methyl-2-[methyl-[3-[[7-(5-methyl-1,2,4-oxadiazol-3-yl)-1-isoquinolyl]amino]azetidine-1-carbonyl]amino]thiazole-5-carboxylate] is 5 nM; for `Cc1nc(-c2ccc3ccnc(NC4CN(C(=O)Nc5nc(C)c(C(C)(C)C)s5)C4)c3c2)no1` [Example 232, N-(5-(tert-butyl)-4-methylthiazol-2-yl)-3-((7-(5-methyl-1,2,4-oxadiazol-3-yl)isoquinolin-1-yl)amino)azetidine-1-carboxamide] it is 44 nM.
`CCCOC(=O)c1sc(N(C)C(=O)CCNC(=O)c2cc(Cl)cc(-c3noc(C)n3)c2)nc1C` [Example 233, Propyl 2-(3-(3-chloro-5-(5-methyl-1,2,4-oxadiazol-3-yl)benzamido)-N-methylpropanamido)-4-methylthiazole-5-carboxylate]: the IC50 worked out at 30 nM.
As for `CCCOC(=O)c1sc(NC(=O)[C@@H]2C[C@H](NC(=O)c3cccc(-c4noc(C)n4)c3)CN2C)nc1C` [Example 234, Propyl 4-methyl-2-((2S,4S)-1-methyl-4-(3-(5-methyl-1,2,4-oxadiazol-3-yl)benzamido)pyrrolidine-2-carboxamido)thiazole-5-carboxylate], the IC50 turned out to be 2100 nM.
Turning to `CCCOC(=O)c1sc(NC(=O)[C@H]2C[C@@H](NC(=O)c3cccc(-c4noc(C)n4)c3)CN2C)nc1C` [Example 235, Propyl 4-methyl-2-((2R,4R)-1-methyl-4-(3-(5-methyl-1,2,4-oxadiazol-3-yl)benzamido)pyrrolidine-2-carboxamido)thiazole-5-carboxylate], the IC50 amounted to 6780 nM.
